Usually IC50 stands for the concentration that inhibits the measured activity by half.

This experiment has as its system recombinant HIV-2 protease. Nature of the experiment: In vitro inhibition of recombinant HIV-2 protease expressed in Escherichia coli strain X90.

For the compound `O=C(C=CC[N+]1([O-])CCC(O)(c2ccc(Cl)cc2)CC1)c1ccc(F)cc1` (stereo unspecified) [(E)-4-[4-(4-Chloro-phenyl)-4-hydroxy-1-oxy-piperidin-1-yl]-1-(4-fluoro-phenyl)-but-2-en-1-one], the IC50 came out at 40 µM.
